In one series the target is B-Raf (Homo sapiens, UniProt P15056). Kind of series: B-Raf biochemical kinase inhibition (AlphaScreen, biotin-MEK1 substrate). The note with it: 100 μM ATP. The procedure, abridged: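 Serial 1:3 dilutions of compound (0.1 mM DMSO stock, eight points) were added first, then ATP to start the reaction at 100 μM final.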
(In Alpha technology, singlet oxygen from a donor bead excites a nearby acceptor bead.)

Series [1] is described as follows: Relative solubility by turbidity in aqueous buffers of varying pH. In kind it is physicochemical. As to conditions: for turbidity threshold (L, M, H) 7.4: HEPES pH 7.4; for turbidity threshold (L, M, H) 4.5: SIF pH 4.5; for turbidity threshold (L, M, H) 6.8: SIF pH 6.8; for turbidity threshold (L, M, H) 1.4: buffer pH 1.4 (SGF). The method, then:
As an indication of relative solubility, the turbidity of compounds in aqueous solutions is assessed. To assess possible compound properties in different physiological compartments, such as stomach, intestine, and blood, a series of aqueous buffers with varying pH is used. Thus each compound is diluted into four different physiologically relevant buffers and solution turbidity is measured by spectrophotometry.
Compounds are dissolved at a concentration of 25 mM in dimethyl sulfoxide, then serially diluted 1:1 into a 96 well plate, diluting 10 times in pure dimethyl sulfoxide, with the final well of each row a dimethyl sulfoxide blank. In an assay plate, 99 μL of appropriate buffer is added to each well, and 1 μL of each sample dilution is added to the buffer, achieving a range of final total concentrations in aqueous solutions having different pH. The buffers used are Simulated Gastric Fluid (SGF-pH 1.5) 0.5M NaCl, pH 1.5; Simulated Intestinal fluid (SIF-pH 4.5 and pH 6.8) 0.05M NaH2PO4, pH 4.5 and 6.8; and Hepes Buffer (HEPES-pH 7.4) 10 mM HEPES, 150 mM NaCl, pH 7.4. Control compounds pyrene, estriol and propranolol HCl are also assessed. Plates are spun and then mixed for 1 minute, and the absorbance is read using a Tecan Safire II to read wavelengths in the visible range (490, 535, and 650 nm) at four locations per well, reflecting the degree of turbidity present. The average optical density for each wavelength in each well is graphed vs. compound concentration, and the concentration at which the curve crosses a threshold O.D. of 0.01 for each wavelength is reported as the endpoint turbidity assay result. The average of the three wavelengths is used to compare turbidity of compounds. Compounds are considered to have low solubility if the threshold concentration is <31.3 04, moderate solubility if the threshold concentration is 31.3 μM to 250 μM, and high solubility if the threshold concentration is >250 μM.

For another series, the target named is CYP3A4(BQ) (Homo sapiens, UniProt P08684). Kind of series: CYP3A4(BQ) inhibition (fluorescent substrate). It counts as in vitro ADME. The note with it: read-out: Cyp IC50 3A4(BQ). The protocol: (§1) CYP (Cytochrome P450) enzymes are the major drug metabolizing enzymes present in the liver. The inhibition of CYP enzyme activity (IC50) for each of CYP1A2, CYP2C19, CYP2C9, CYP2D6, CYP3A4(BFC) and CYP3A4(BQ) is determined for compounds, where inhibition of metabolism of a known substrate leads to a decrease in the fluorescence of the metabolized product. The fluorescence of the product is monitored as a function of compound concentration. Compounds are dissolved in dimethyl sulfoxide to a concentration of 100 mM. These are diluted 1 μL into 82 μL of acetonitrile. […] These are then serially diluted 1:1 (160 μL to 160 μL co-factor mix) for a total of 10 points. A 10 μL aliquot of this final mixture is dispensed into 384 well assay plates and incubated for 10 minutes at 37° C. […] Assay plates are incubated at 37° C. […] The signal versus compound concentration is used to determine the IC50. The enzymes and substrates for this assay are obtained from BD Biosciences.
Chain of CYP3A4(BQ) (P08684 whole entry): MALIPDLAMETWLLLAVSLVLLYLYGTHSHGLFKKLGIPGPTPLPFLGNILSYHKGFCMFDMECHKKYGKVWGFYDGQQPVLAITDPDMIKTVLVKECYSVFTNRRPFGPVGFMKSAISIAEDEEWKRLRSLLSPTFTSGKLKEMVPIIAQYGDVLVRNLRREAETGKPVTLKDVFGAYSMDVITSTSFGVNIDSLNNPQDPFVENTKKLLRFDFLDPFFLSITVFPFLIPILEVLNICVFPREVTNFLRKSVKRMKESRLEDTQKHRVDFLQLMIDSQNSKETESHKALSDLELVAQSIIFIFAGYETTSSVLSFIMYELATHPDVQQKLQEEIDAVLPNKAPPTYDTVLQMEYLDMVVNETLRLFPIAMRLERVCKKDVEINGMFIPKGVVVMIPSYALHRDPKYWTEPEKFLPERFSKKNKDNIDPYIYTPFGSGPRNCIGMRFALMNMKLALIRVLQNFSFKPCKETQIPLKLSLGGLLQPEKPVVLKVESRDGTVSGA

Another series concerns the target CYP3A4(BFC) (Homo sapiens, UniProt P08684). In words: CYP3A4(BFC) inhibition (fluorescent substrate). It counts as in vitro ADME. The note with it: read-out: Cyp IC50 3A4(BFC). The method, then: as §1

Chain of CYP3A4(BFC) (P08684 whole entry): as above
Chain of B-Raf (P15056 whole entry): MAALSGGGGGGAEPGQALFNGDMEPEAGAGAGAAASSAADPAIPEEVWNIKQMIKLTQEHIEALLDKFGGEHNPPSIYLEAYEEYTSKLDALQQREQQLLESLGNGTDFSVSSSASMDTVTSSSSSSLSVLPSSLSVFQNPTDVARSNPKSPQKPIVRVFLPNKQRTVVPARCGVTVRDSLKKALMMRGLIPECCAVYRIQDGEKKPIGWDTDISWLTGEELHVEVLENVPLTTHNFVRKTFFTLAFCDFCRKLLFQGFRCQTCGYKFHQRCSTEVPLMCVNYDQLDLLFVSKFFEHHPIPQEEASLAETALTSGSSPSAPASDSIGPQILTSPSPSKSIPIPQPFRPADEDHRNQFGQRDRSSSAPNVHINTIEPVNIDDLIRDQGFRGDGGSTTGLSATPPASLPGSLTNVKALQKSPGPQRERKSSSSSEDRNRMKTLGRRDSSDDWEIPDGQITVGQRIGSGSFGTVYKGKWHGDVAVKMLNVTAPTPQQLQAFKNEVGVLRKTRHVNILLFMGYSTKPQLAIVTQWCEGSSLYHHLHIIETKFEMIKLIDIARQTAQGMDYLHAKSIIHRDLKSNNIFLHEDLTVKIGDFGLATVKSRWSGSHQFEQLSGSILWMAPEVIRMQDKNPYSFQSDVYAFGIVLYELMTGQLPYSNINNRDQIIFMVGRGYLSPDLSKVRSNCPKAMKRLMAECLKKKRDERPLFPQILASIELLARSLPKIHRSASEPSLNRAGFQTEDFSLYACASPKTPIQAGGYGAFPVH

What is called IC50 is the midpoint of a concentration-inhibition curve. Take `CCCS(=O)(=O)Nc1ccc(F)c(C(=O)c2c[nH]c3ncc(-c4cnn(CCN5CCOCC5)c4)cc23)c1F` [P-2177, Propane-1-sulfonic acid (2,4-difluoro-3-{5-[1-(2-morpholin-4-yl-ethyl)-1H-pyrazol-4-yl]-1H-pyrrolo[2,3-b]pyridine-3-carbonyl}-phenyl)-amide]: the IC50 on B-Raf was < 0.01 µM. Moreover, in series [1], the “turbidity threshold (L, M, H) 7.4” value is on record as “L (low solubility if the threshold concentration is <31.3 04)”; the “turbidity threshold (L, M, H) 4.5” value is reported as “M (moderate solubility if the threshold concentration is 31.3 μM to 250 μM)”; the “turbidity threshold (L, M, H) 6.8” value is listed as “L (low solubility if the threshold concentration is <31.3 04)”; the “turbidity threshold (L, M, H) 1.4” value is listed as “H (high solubility if the threshold concentration is >250 μM)”. For the same molecule, the IC50 at CYP3A4(BQ) was > 10 µM. The IC50 on CYP3A4(BFC) is < 5 µM.

Consider `CCCS(=O)(=O)Nc1ccc(F)c(C(=O)c2c[nH]c3ncc(-c4ccc(C(=O)NC)nc4)cc23)c1F` [P-2180, 5-{3-[2,6-Difluoro-3-(propane-1-sulfonylamino)-benzoyl]-1H-pyrrolo[2,3-b]pyridin-5-yl}-pyridine-2-carboxylic acid methylamide], for which the IC50 against B-Raf is < 0.01 µM. In addition, in series [1], the “turbidity threshold (L, M, H) 7.4” value is on record as “L (low solubility if the threshold concentration is <31.3 04)”; the “turbidity threshold (L, M, H) 4.5” value is on record as “L (low solubility if the threshold concentration is <31.3 04)”; the “turbidity threshold (L, M, H) 6.8” value is “L (low solubility if the threshold concentration is <31.3 04)”; the “turbidity threshold (L, M, H) 1.4” value is given as “L (low solubility if the threshold concentration is <31.3 04)”. The IC50 at CYP3A4(BQ) is > 10 µM. The IC50 on CYP3A4(BFC) is > 10 µM.

As to `CCCS(=O)(=O)Nc1ccc(F)c(C(=O)c2c[nH]c3ncc(-c4ccc(C(=O)NC5CC5)nc4)cc23)c1F` [P-2181, 5-{3-[2,6-Difluoro-3-(propane-1-sulfonylamino)-benzoyl]-1H-pyrrolo[2,3-b]pyridin-5-yl}-pyridine-2-carboxylic acid cyclopropylamide], on B-Raf, the IC50 was < 0.01 µM. Also, in series [1], the “turbidity threshold (L, M, H) 7.4” value was “L (low solubility if the threshold concentration is <31.3 04)”; the “turbidity threshold (L, M, H) 4.5” value is “L (low solubility if the threshold concentration is <31.3 04)”; the “turbidity threshold (L, M, H) 6.8” value was “L (low solubility if the threshold concentration is <31.3 04)”; the “turbidity threshold (L, M, H) 1.4” value was “L (low solubility if the threshold concentration is <31.3 04)”. The IC50 at CYP3A4(BQ) is > 10 µM. For the same molecule, on CYP3A4(BFC), the IC50 was > 10 µM.

As to `CCCS(=O)(=O)Nc1ccc(F)c(C(=O)c2c[nH]c3ncc(-c4ccc(S(C)(=O)=O)cc4)cc23)c1F` [P-2183, Propane-1-sulfonic acid {2,4-difluoro-3-[5-(4-methanesulfonyl-phenyl)-1H-pyrrolo[2,3-b]pyridine-3-carbonyl]-phenyl}-amide], on B-Raf, the IC50 was < 0.01 µM. In series [1], the “turbidity threshold (L, M, H) 7.4” value is “L (low solubility if the threshold concentration is <31.3 04)”; the “turbidity threshold (L, M, H) 4.5” value was “L (low solubility if the threshold concentration is <31.3 04)”; the “turbidity threshold (L, M, H) 6.8” value was “L (low solubility if the threshold concentration is <31.3 04)”; the “turbidity threshold (L, M, H) 1.4” value is recorded as “L (low solubility if the threshold concentration is <31.3 04)”. Moreover, at CYP3A4(BQ), the IC50 was > 10 µM. For the same molecule, the IC50 on CYP3A4(BFC) was > 10 µM.

For `CCCS(=O)(=O)Nc1ccc(F)c(C(=O)c2c[nH]c3ncc(-c4ccc(OC)nc4OC)cc23)c1F` [P-2184, Propane-1-sulfonic acid {3-[5-(2,6-dimethoxy-pyridin-3-yl)-1H-pyrrolo[2,3-b]pyridine-3-carbonyl]-2,4-difluoro-phenyl}-amide], the IC50 against B-Raf is < 0.1 µM. Further, in series [1], the “turbidity threshold (L, M, H) 7.4” value is listed as “L (low solubility if the threshold concentration is <31.3 04)”; the “turbidity threshold (L, M, H) 4.5” value is listed as “L (low solubility if the threshold concentration is <31.3 04)”; the “turbidity threshold (L, M, H) 6.8” value was “L (low solubility if the threshold concentration is <31.3 04)”; the “turbidity threshold (L, M, H) 1.4” value is on record as “L (low solubility if the threshold concentration is <31.3 04)”. Moreover, on CYP3A4(BQ), the IC50 was > 10 µM. Besides, at CYP3A4(BFC), the IC50 was > 10 µM.

In the case of `CCCS(=O)(=O)Nc1ccc(F)c(C(=O)c2c[nH]c3ncc(-c4ccc(SC)nc4)cc23)c1F` [P-2187, Propane-1-sulfonic acid {2,4-difluoro-3-[5-(6-methylsulfanyl-pyridin-3-yl)-1H-pyrrolo[2,3-b]pyridine-3-carbonyl]-phenyl}-amide], the IC50 on B-Raf is < 0.01 µM; on CYP3A4(BQ), > 10 µM; at CYP3A4(BFC) it was > 10 µM.

Turning to `CCCS(=O)(=O)Nc1ccc(F)c(C(=O)c2c[nH]c3ncc(-c4cncc(S(C)(=O)=O)c4)cc23)c1F` [P-2188, Propane-1-sulfonic acid {2,4-difluoro-3-[5-(5-methanesulfonyl-pyridin-3-yl)-1H-pyrrolo[2,3-b]pyridine-3-carbonyl]-phenyl}-amide], the IC50 against B-Raf is < 0.01 µM. Besides, in series [1], the “turbidity threshold (L, M, H) 7.4” value is recorded as “M (moderate solubility if the threshold concentration is 31.3 μM to 250 μM)”; the “turbidity threshold (L, M, H) 4.5” value was “L (low solubility if the threshold concentration is <31.3 04)”; the “turbidity threshold (L, M, H) 6.8” value is reported as “L (low solubility if the threshold concentration is <31.3 04)”; the “turbidity threshold (L, M, H) 1.4” value is on record as “M (moderate solubility if the threshold concentration is 31.3 μM to 250 μM)”. Also, at CYP3A4(BQ), the IC50 is > 10 µM. For the same molecule, the IC50 at CYP3A4(BFC) is > 10 µM.

Regarding `CCCS(=O)(=O)Nc1ccc(F)c(C(=O)c2c[nH]c3ncc(-c4cnn(Cc5ccccc5)c4)cc23)c1F` [P-2190, Propane-1-sulfonic acid {3-[5-(1-benzyl-1H-pyrazol-4-yl)-1H-pyrrolo[2,3-b]pyridine-3-carbonyl]-2,4-difluoro-phenyl}-amide], the IC50 at B-Raf is < 0.01 µM. Also, in series [1], the “turbidity threshold (L, M, H) 7.4” value was “L (low solubility if the threshold concentration is <31.3 04)”; the “turbidity threshold (L, M, H) 4.5” value is on record as “L (low solubility if the threshold concentration is <31.3 04)”; the “turbidity threshold (L, M, H) 6.8” value was “L (low solubility if the threshold concentration is <31.3 04)”; the “turbidity threshold (L, M, H) 1.4” value was “L (low solubility if the threshold concentration is <31.3 04)”. In addition, the IC50 on CYP3A4(BQ) was > 10 µM. Further, the IC50 on CYP3A4(BFC) was > 10 µM.

`CCCS(=O)(=O)Nc1ccc(F)c(C(=O)c2c[nH]c3ncc(-c4ccnc(F)c4)cc23)c1F` [P-2192, Propane-1-sulfonic acid {2,4-difluoro-3-[5-(2-fluoro-pyridin-4-yl)-1H-pyrrolo[2,3-b]pyridine-3-carbonyl]-phenyl}-amide]: the IC50 at B-Raf was < 0.01 µM. In series [1], the “turbidity threshold (L, M, H) 7.4” value is reported as “L (low solubility if the threshold concentration is <31.3 04)”; the “turbidity threshold (L, M, H) 4.5” value was “L (low solubility if the threshold concentration is <31.3 04)”; the “turbidity threshold (L, M, H) 6.8” value is “L (low solubility if the threshold concentration is <31.3 04)”; the “turbidity threshold (L, M, H) 1.4” value is listed as “L (low solubility if the threshold concentration is <31.3 04)”. In addition, the IC50 on CYP3A4(BQ) is > 10 µM. At CYP3A4(BFC), the IC50 is > 10 µM.

For the origin of these results see patent publication US8198273B2, “Compounds and methods for kinase modulation, and indications therefor” (Plexxikon Inc., priority 2009, dated 2012).
